According to patent US20250115595A1, “INHIBITORS OF HYPOXIA-INDUCIBLE FACTORS” (The Johns Hopkins University, priority 2021, published 2025):

Tested on: cytokine mRNAs
Assay: RT-qPCR array of mouse cytokines and chemokines in Hepa1-6 tumors
Assay type: in vivo
Details: Hepa1-6 tumors, vs vehicle
Experimental: Total RNA from Hepa1-6 tumors was analyzed using the RT2 Profiler PCR Array of Mouse Cytokines and Chemokines (Qiagen, catalog number 330231 PAMM-150ZA) according to the manufacturer's instructions.

## Brc1ccc2c(-c3csc(-c4c[nH]c5c(Br)cccc45)n3)c[nH]c2c1 [Compound 32-134D, 4-(6-bromo-1H-indol-3-yl)-2-(7-bromo-1H-indol-3-yl)thiazole]
  Adipoq mRNA Fold Change Test Group/Control Group: 0.43
  Adipoq mRNA Fold Up- or Down-Regulation Test Group/Control Group: −2.31
  Adipoq mRNA X axis (Log2(fold change)): −1.21
  Bmp2 mRNA Fold Change Test Group/Control Group: 0.51
  Bmp2 mRNA Fold Up- or Down-Regulation Test Group/Control Group: −1.95
  Bmp2 mRNA X axis (Log2(fold change)): −0.96
  Bmp4 mRNA Fold Change Test Group/Control Group: 0.64
  Bmp4 mRNA Fold Up- or Down-Regulation Test Group/Control Group: −1.96
  Bmp4 mRNA X axis (Log2(fold change)): −0.64
  Bmp6 mRNA Fold Change Test Group/Control Group: 0.44
  Bmp6 mRNA Fold Up- or Down-Regulation Test Group/Control Group: −2.27
  Bmp6 mRNA X axis (Log2(fold change)): −1.18
  Bmp7 mRNA Fold Change Test Group/Control Group: 0.70
  Bmp7 mRNA Fold Up- or Down-Regulation Test Group/Control Group: −1.43
  Bmp7 mRNA X axis (Log2(fold change)): −0.51
  Cc15 mRNA Fold Change Test Group/Control Group: 0.92
  Cc15 mRNA Fold Up- or Down-Regulation Test Group/Control Group: −1.09
  Cc15 mRNA X axis (Log2(fold change)): −0.13
  Cc120 mRNA Fold Change Test Group/Control Group: 0.42
  Cc120 mRNA Fold Up- or Down-Regulation Test Group/Control Group: −2.41
  Cc120 mRNA X axis (Log2(fold change)): −1.27
  Ccl1 mRNA Fold Change Test Group/Control Group: 0.63
  Ccl1 mRNA Fold Up- or Down-Regulation Test Group/Control Group: −1.58
  Ccl1 mRNA X axis (Log2(fold change)): −0.66
  Ccl2 mRNA Fold Change Test Group/Control Group: 1.35
  Ccl2 mRNA Fold Up- or Down-Regulation Test Group/Control Group: 1.35
  Ccl2 mRNA X axis (Log2(fold change)): 0.44
  Ccl3 mRNA Fold Change Test Group/Control Group: 1.06
  Ccl3 mRNA Fold Up- or Down-Regulation Test Group/Control Group: 1.06
  Ccl3 mRNA X axis (Log2(fold change)): 0.09
  Ccl4 mRNA Fold Change Test Group/Control Group: 0.72
  Ccl4 mRNA Fold Up- or Down-Regulation Test Group/Control Group: −1.39
  Ccl4 mRNA X axis (Log2(fold change)): −0.47
  Ccl7 mRNA Fold Change Test Group/Control Group: 1.03
  Ccl7 mRNA Fold Up- or Down-Regulation Test Group/Control Group: 1.03
  Ccl7 mRNA X axis (Log2(fold change)): 0.04
  Ccl11 mRNA Fold Change Test Group/Control Group: 1.03
  Ccl11 mRNA Fold Up- or Down-Regulation Test Group/Control Group: 1.03
  Ccl11 mRNA X axis (Log2(fold change)): 0.04
  Ccl12 mRNA Fold Change Test Group/Control Group: 4.11
  Ccl12 mRNA Fold Up- or Down-Regulation Test Group/Control Group: 4.11
  Ccl12 mRNA X axis (Log2(fold change)): 2.04
  Ccl17 mRNA Fold Change Test Group/Control Group: 0.68
  Ccl17 mRNA Fold Up- or Down-Regulation Test Group/Control Group: −1.47
  Ccl17 mRNA X axis (Log2(fold change)): −0.56
  Ccl19 mRNA Fold Change Test Group/Control Group: 0.54
  Ccl19 mRNA Fold Up- or Down-Regulation Test Group/Control Group: −1.86
  Ccl19 mRNA X axis (Log2(fold change)): −0.89
  Ccl22 mRNA Fold Change Test Group/Control Group: 0.31
  Ccl22 mRNA Fold Up- or Down-Regulation Test Group/Control Group: −3.18
  Ccl22 mRNA X axis (Log2(fold change)): −1.67
  Ccl24 mRNA Fold Change Test Group/Control Group: 1.21
  Ccl24 mRNA Fold Up- or Down-Regulation Test Group/Control Group: 1.21
  Ccl24 mRNA X axis (Log2(fold change)): 0.27
  Cd40lg mRNA Fold Change Test Group/Control Group: 0.52
  Cd40lg mRNA Fold Up- or Down-Regulation Test Group/Control Group: −1.91
  Cd40lg mRNA X axis (Log2(fold change)): −0.93
  Cd70 mRNA Fold Change Test Group/Control Group: 0.24
  Cd70 mRNA Fold Up- or Down-Regulation Test Group/Control Group: −4.19
  Cd70 mRNA X axis (Log2(fold change)): −2.07
  Cntf mRNA Fold Change Test Group/Control Group: 0.38
  Cntf mRNA Fold Up- or Down-Regulation Test Group/Control Group: −2.61
  Cntf mRNA X axis (Log2(fold change)): −1.39
  Csf1 mRNA Fold Change Test Group/Control Group: 1.02
  Csf1 mRNA Fold Up- or Down-Regulation Test Group/Control Group: 1.02
  Csf1 mRNA X axis (Log2(fold change)): 0.03
  Csf2 mRNA Fold Change Test Group/Control Group: 0.38
  Csf2 mRNA Fold Up- or Down-Regulation Test Group/Control Group: −2.64
  Csf2 mRNA X axis (Log2(fold change)): −1.40
  Csf3 mRNA Fold Change Test Group/Control Group: 0.50
  Csf3 mRNA Fold Up- or Down-Regulation Test Group/Control Group: −1.99
  Csf3 mRNA X axis (Log2(fold change)): −0.99
  Ctf1 mRNA Fold Change Test Group/Control Group: 0.19
  Ctf1 mRNA Fold Up- or Down-Regulation Test Group/Control Group: −5.18
  Ctf1 mRNA X axis (Log2(fold change)): −2.37
  Cx3cl1 mRNA Fold Change Test Group/Control Group: 0.53
  Cx3cl1 mRNA Fold Up- or Down-Regulation Test Group/Control Group: −1.89
  Cx3cl1 mRNA X axis (Log2(fold change)): −0.92
  Cxcl1 mRNA Fold Change Test Group/Control Group: 0.67
  Cxcl1 mRNA Fold Up- or Down-Regulation Test Group/Control Group: 1.49
  Cxcl1 mRNA X axis (Log2(fold change)): −0.57
  Cxcl3 mRNA Fold Change Test Group/Control Group: 0.87
  Cxcl3 mRNA Fold Up- or Down-Regulation Test Group/Control Group: −1.14
  Cxcl3 mRNA X axis (Log2(fold change)): −0.19
  Cxcl5 mRNA Fold Change Test Group/Control Group: 1.05
  Cxcl5 mRNA Fold Up- or Down-Regulation Test Group/Control Group: 1.05
  Cxcl5 mRNA X axis (Log2(fold change)): 0.07
  Cxcl9 mRNA Fold Change Test Group/Control Group: 1.64
  Cxcl9 mRNA Fold Up- or Down-Regulation Test Group/Control Group: 1.64
  Cxcl9 mRNA X axis (Log2(fold change)): 0.71
  Cxcl10 mRNA Fold Change Test Group/Control Group: 1.44
  Cxcl10 mRNA Fold Up- or Down-Regulation Test Group/Control Group: 1.44
  Cxcl10 mRNA X axis (Log2(fold change)): 0.53
  Cxcl11 mRNA Fold Change Test Group/Control Group: 0.45
  Cxcl11 mRNA Fold Up- or Down-Regulation Test Group/Control Group: −2.24
  Cxcl11 mRNA X axis (Log2(fold change)): −1.16
  Cxcl12 mRNA Fold Change Test Group/Control Group: 2.26
  Cxcl12 mRNA Fold Up- or Down-Regulation Test Group/Control Group: 2.26
  Cxcl12 mRNA X axis (Log2(fold change)): 1.17
  Cxcl13 mRNA Fold Change Test Group/Control Group: 0.39
  Cxcl13 mRNA Fold Up- or Down-Regulation Test Group/Control Group: −2.57
  Cxcl13 mRNA X axis (Log2(fold change)): −1.36
  Cxcl16 mRNA Fold Change Test Group/Control Group: 0.61
  Cxcl16 mRNA Fold Up- or Down-Regulation Test Group/Control Group: −1.65
  Cxcl16 mRNA X axis (Log2(fold change)): −0.72
  Fasl mRNA Fold Change Test Group/Control Group: 0.59
  Fasl mRNA Fold Up- or Down-Regulation Test Group/Control Group: −1.70
  Fasl mRNA X axis (Log2(fold change)): −0.77
  Gpi1 mRNA Fold Change Test Group/Control Group: 0.64
  Gpi1 mRNA Fold Up- or Down-Regulation Test Group/Control Group: −1.57
  Gpi1 mRNA X axis (Log2(fold change)): −0.65
  Hc mRNA Fold Change Test Group/Control Group: 1.77
  Hc mRNA Fold Up- or Down-Regulation Test Group/Control Group: 1.77
  Hc mRNA X axis (Log2(fold change)): 0.82
  Lif mRNA Fold Change Test Group/Control Group: 0.40
  Lif mRNA Fold Up- or Down-Regulation Test Group/Control Group: −2.48
  Lif mRNA X axis (Log2(fold change)): −1.31
  Lta mRNA Fold Change Test Group/Control Group: 0.34
  Lta mRNA Fold Up- or Down-Regulation Test Group/Control Group: −2.96
  Lta mRNA X axis (Log2(fold change)): −1.57
  Ltb mRNA Fold Change Test Group/Control Group: 0.63
  Ltb mRNA Fold Up- or Down-Regulation Test Group/Control Group: −1.58
  Ltb mRNA X axis (Log2(fold change)): −0.66
  Mif mRNA Fold Change Test Group/Control Group: 1.12
  Mif mRNA Fold Up- or Down-Regulation Test Group/Control Group: 1.12
  Mif mRNA X axis (Log2(fold change)): 0.17
  Mstn mRNA Fold Change Test Group/Control Group: 0.21
